# Experimental data reported in US10759796B2, “CXCR4 inhibitors and uses thereof” (X4 Pharmaceuticals, Inc., priority 2016, dated 2020).
# Test system: not listed separately
# Assay: Rat pharmacokinetics and brain penetration (IV and PO)
# Format: in vivo
# Conditions: male, SD, brain and plasma; Rat, 3 mg/kg IV; 10 mg/kg PO; read-out: Kp (brain/plasma drug concentration ratio)
# Protocol: (§1) Example 29: Pharmacokinetics and Brain Penetration Experiment to Determine Brain and Plasma Concentrations of Compounds After IV Administration to Male CD1 Mice or Male SD Rat
# The study design consisted of 2 groups (24 animals and 18 animals) and administrating the drug [IV: 3 mg/kg (1.5 mL/kg) via foot dorsal vein], [PO: 10 mg/kg (5 mL/kg) via oral gavage] and collecting samples at terminal bleeding for plasma, brain and CSF at 0.25, 0.5, 1, 4, 8 and 24 hr. The IV and PO dosing solutions were prepared in 50 mM citrate buffer (pH 4.0) at 2 mg/mL. The blood collection was performed as follows: the animal was restrained manually at the designated time points, approximately 150 μL of blood sample was collected via cardiac puncture vein into EDTA-2K tubes. The blood samples were maintained in wet ice first and centrifuged to obtain plasma (2000 g, 4° C., 5 min) within 15 minutes post sampling. The brain collection was performed as follows: a mid-line incision was made in the animal's scalp and the skin was retracted. Using small bone cutters and rongeurs, the skull overlying the brain was removed. The brain was removed using a spatula and rinsed with cold saline. The brain was placed in screw-top tubes and then stored under −70° C. until analysis. The CSF collection was performed as follows: the animal was euthanized under deep anesthesia with air bubble tail vein injection. The CSF was collected by direct puncture of butterfly needle into the cisterna magna, using the occipital bone and the wings of the atlas as landmarks. A piece of white paper was used as a background to monitor color change in the sample just above the needle during collection. Upon observation of color change, the PE tubing was quickly clamped off above the color change and cut just above the clamped site. The clear sample was drawn into the syringe.
# Plasma Samples Preparation:
# An aliquot of 30 μL sample was added with 100 MeCN containing 100 ng/mL IS (Dexamethasone). The mixture was vortexed for 10 min and centrifuged at 5800 rpm for 10 min. An aliquot of 40 μL supernatant was added with 40 μl H2O and the mixture was vortexed for 5 min. An aliquot of 2 μL supernatant was injected for LC-MS/MS analysis.
# Brain Samples Preparation:
# The sample was homogenized with 3 volumes (v/w) of PBS. An aliquot of 30 μL sample was added with 100 μL ACN containing 100 ng/mL IS (Dexamethasone). The mixture was vortexed for 10 min and centrifuged at 5800 rpm for 10 min. An aliquot of 40 μL supernatant was added with 40 μl H2O and the mixture was vortexed for 5 min. An aliquot of 2 μL supernatant was injected for LC-MS/MS analysis.
# An aliquot of 10 μL sample was added with 10 μLMeOH/H2O (1/1) and […], ACN containing 200 ng/mL IS (Dexamethasone) 120 μL H2O. The mixture was vortexed for 5 min. An aliquot of 2 μL supernatant was injected for LC-MS/MS analysis.
# The sample analysis was performed on UPLC-MS/MS-02 (Triple Quad 4000) under the following conditions: positive ion, ESI, MRM detection using dexamethasone as internal standard. HPLC conditions: mobile phase A: H2O-0.1% FA, mobile phase B: MeCN-0.1% FA on ACQUITY UPLC HSS T3 (2.1×50 mm, 1.8 μm) column at 60° C.
row,Structure (SMILES),Kp
1,"CN1CCN(c2cccc3nc([C@@H]4CCC[C@H](c5ncccc5Cl)N4)cn23)CC1 (single isomer, unassigned) [Compound I-189]",4.03

# Same assay, conditions: male, SD, brain and plasma; Rat, 3 mg/kg IV; 10 mg/kg PO; read-out: Kp, uu (unbound brain/unbound plasma drug concentration ratio)
row,Structure (SMILES),Kp uu
1,"CN1CCN(c2cccc3nc([C@@H]4CCC[C@H](c5ncccc5Cl)N4)cn23)CC1 (single isomer, unassigned) [Compound I-189]",0.99

# Same assay, conditions: male, SD, plasma; Rat, 3 mg/kg IV; 10 mg/kg PO
row,Structure (SMILES),clearance [mL/min/kg]
1,"CN1CCN(c2cccc3nc([C@@H]4CCC[C@H](c5ncccc5Cl)N4)cn23)CC1 (single isomer, unassigned) [Compound I-189]",68.8

# Same assay, conditions: male, SD, plasma; Rat, 3 mg/kg IV; 10 mg/kg PO; read-out: F % (oral bioavailability)
row,Structure (SMILES),bioavailability [%]
1,"CN1CCN(c2cccc3nc([C@@H]4CCC[C@H](c5ncccc5Cl)N4)cn23)CC1 (single isomer, unassigned) [Compound I-189]",25.4

# Same assay, conditions: male, SD, plasma; Rat, 3 mg/kg IV; 10 mg/kg PO; read-out: t½ (converted)
row,Structure (SMILES),half-life [h]
1,"CN1CCN(c2cccc3nc([C@@H]4CCC[C@H](c5ncccc5Cl)N4)cn23)CC1 (single isomer, unassigned) [Compound I-189]",8.14

# Same assay, conditions: male, SD; Rat brain, 3 mg/kg IV; 10 mg/kg PO; read-out: AUClast (b)
row,Structure (SMILES),AUC(0-t) [ng·h/mL]
1,"CN1CCN(c2cccc3nc([C@@H]4CCC[C@H](c5ncccc5Cl)N4)cn23)CC1 (single isomer, unassigned) [Compound I-189]",2300

# Same assay, conditions: male, SD; Rat plasma, 3 mg/kg IV; 10 mg/kg PO; read-out: AUClast (p)
row,Structure (SMILES),AUC(0-t) [ng·h/mL]
1,"CN1CCN(c2cccc3nc([C@@H]4CCC[C@H](c5ncccc5Cl)N4)cn23)CC1 (single isomer, unassigned) [Compound I-189]",570

# Test system: plasma proteins
# Assay: Fraction of drug unbound to plasma proteins, mouse
# Format: in vitro ADME
# Conditions: Mouse plasma proteins (Table 10)
row,Structure (SMILES),Fu (p) % [%]
1,Cc1cccnc1[C@@H]1CCC[C@H](c2cn3c(N4CCN(C)CC4)cccc3n2)N1 [Compound I-187],24.9

# Test system: brain proteins
# Assay: Fraction of drug unbound to brain proteins, mouse
# Format: in vitro ADME
# Conditions: Mouse brain proteins (Table 10)
row,Structure (SMILES),Fu (b) % [%]
1,Cc1cccnc1[C@@H]1CCC[C@H](c2cn3c(N4CCN(C)CC4)cccc3n2)N1 [Compound I-187],7.1

# Test system: not listed separately
# Assay: Fraction of drug unbound to plasma proteins, rat
# Format: in vitro ADME
# Conditions: read-out: Fu (p)
row,Structure (SMILES),fraction unbound
1,"CN1CCN(c2cccc3nc([C@@H]4CCC[C@H](c5ncccc5Cl)N4)cn23)CC1 (single isomer, unassigned) [Compound I-189]",0.248

# Test system: not listed separately
# Assay: Mouse brain uptake assay (pharmacokinetics and brain penetration after IV administration), 0-1 h, 3 time points
# Format: in vivo, Male CD1 Mice
# Conditions: male, CD1, brain and plasma; Mouse, 3 mg/kg IV, 0-1 h; read-out: Kp, uu (unbound brain/unbound plasma drug concentration ratio)
# Protocol: as §1
# (§2) The study design (9 animals) consisted of administrating the drug (IV: 3 mg/kg (5 mL/kg) via tail vein injection) and collecting samples at terminal bleeding for plasma and brain at 0.083, 0.5 and 1 h. The blood collection was performed as follows: the animal was restrained manually and approximately 150 μL blood/time point was collected into a dipotassium EDTA tube via retro orbital puncture under anesthesia with isoflurane. The blood sample was put on ice and centrifuged to obtain a plasma sample (2000 g, 5 min under 4° C.) within 15 minutes. The brain collection was performed as follows: a mid-line incision was made in the animal's scalp and the skin was retracted. Using small bone cutters and rongeurs, the skull overlying the brain was removed. The brain was removed using a spatula and the brain rinsed with cold saline. The brain was placed in screw-top tubes, and the tubes were stored at −70° C. until analysis. The IV dosing solution was prepared in 50 mM citrate buffer (pH 4.0) at 0.6 mg/mL.
# Plasma Sample Preparation:
# (§3) An aliquot of 30 μL sample was added to 150 μL MeCN containing 50 ng/mL IS (Dexamethasone). The mixture was vortexed for 5 min and centrifuged at 14,000 rpm for 5 min. An aliquot of 5 μL supernatant was injected for LC-MS/MS analysis.
# Brain Sample Preparation:
# (§4) An aliquot of 30 μL brain homogenate (brain:PBS=1:3, w/v) sample was added to 150 μL IS in ACN (Dexamethasone, 50 ng/mL). The mixture was vortexed for 5 min and centrifuged at 14,000 rpm for 5 min. An aliquot of 5 μL supernatant was injected for LC-MS/MS analysis.
# (§5) The sample analysis was performed on LCMS/MS-003 (API4000, triple quadruple) under the following conditions: positive ion, ESI, MRM detection using dexamethasone as internal standard. HPLC conditions: mobile phase A: H2O (0.025% formic acid (FA) with 1 mM NH4OAc); mobile phase B: MeOH (0.025% FA with 1 mM NH4OAc) on Waters X-Bridge C18 (2.1×50 mm, 2.5 μm) column at 60° C.
row,Structure (SMILES),Kp uu
1,Cc1cccnc1[C@@H]1CCC[C@H](c2cn3c(N4CCN(C)CC4)cccc3n2)N1 [Compound I-187],0.05

# Same assay, conditions: male, CD1, mouse, brain and plasma, iv, 3 mg/kg; read-out: Kp (brain/plasma drug concentration ratio)
row,Structure (SMILES),Kp
1,Cc1cccnc1[C@@H]1CCC[C@H](c2cn3c(N4CCN(C)CC4)cccc3n2)N1 [Compound I-187],0.22

# Same assay, conditions: male, CD1, plasma; Mouse, 3 mg/kg IV, 0-1 h, 3 time points
row,Structure (SMILES),clearance [mL/min/kg]
1,Cc1cccnc1[C@@H]1CCC[C@H](c2cn3c(N4CCN(C)CC4)cccc3n2)N1 [Compound I-187],127

# Same assay, conditions: male, CD1, plasma; Mouse, 3 mg/kg IV, 0-1 h, 3 time points; read-out: t½ (converted)
row,Structure (SMILES),half-life [h]
1,Cc1cccnc1[C@@H]1CCC[C@H](c2cn3c(N4CCN(C)CC4)cccc3n2)N1 [Compound I-187],0.354

# Same assay, conditions: male, CD1; Mouse brain, 3 mg/kg IV, time zero to 1 hr; read-out: AUClast (b)
row,Structure (SMILES),AUC(0-t) [ng·h/mL]
1,Cc1cccnc1[C@@H]1CCC[C@H](c2cn3c(N4CCN(C)CC4)cccc3n2)N1 [Compound I-187],76.5

# Same assay, conditions: male, CD1; Mouse plasma, 3 mg/kg IV, time zero to 1 hr; read-out: AUClast (p)
row,Structure (SMILES),AUC(0-t) [ng·h/mL]
1,Cc1cccnc1[C@@H]1CCC[C@H](c2cn3c(N4CCN(C)CC4)cccc3n2)N1 [Compound I-187],335

# Test system: not listed separately
# Assay: Fraction of drug unbound to brain proteins, rat
# Format: in vitro ADME
# Conditions: read-out: Fu (b)
row,Structure (SMILES),fraction unbound
1,"CN1CCN(c2cccc3nc([C@@H]4CCC[C@H](c5ncccc5Cl)N4)cn23)CC1 (single isomer, unassigned) [Compound I-189]",0.061

# Test system: not listed separately
# Assay: Mouse brain uptake assay, 0-24 h, 4 time points
# Format: in vivo
# Conditions: male, CD1, Mouse brain, 3 mg/kg IV, 4 time points, read-out: AUClast (b)
# Protocol: as §2, §3, §4, §5
# A similar experiment was performed with 4 time points taken from 0-24 h.
row,Structure (SMILES),AUC(0-t) [ng·h/mL]
1,Cc1cccnc1[C@@H]1CCC[C@H](c2cn3c(N4CCN(C)CC4)cccc3n2)N1 [Compound I-187],1360

# Same assay, conditions: male, CD1, Mouse plasma, 3 mg/kg IV, 4 time points, read-out: AUClast (p)
row,Structure (SMILES),AUC(0-t) [ng·h/mL]
1,Cc1cccnc1[C@@H]1CCC[C@H](c2cn3c(N4CCN(C)CC4)cccc3n2)N1 [Compound I-187],1720

# Same assay, conditions: male, CD1, brain and plasma, Mouse, 3 mg/kg IV, 4 time points
Structure (SMILES),Kp,Kp uu
Cc1cccnc1[C@@H]1CCC[C@H](c2cn3c(N4CCN(C)CC4)cccc3n2)N1 [Compound I-187],0.79,0.22

# Same assay, conditions: male, CD1, plasma, Mouse, 3 mg/kg IV, 4 time points
row,Structure (SMILES),clearance [mL/min/kg]
1,Cc1cccnc1[C@@H]1CCC[C@H](c2cn3c(N4CCN(C)CC4)cccc3n2)N1 [Compound I-187],28.7

# Same assay, conditions: male, CD1, plasma, Mouse, 3 mg/kg IV, 4 time points, read-out: t½ (converted)
row,Structure (SMILES),half-life [h]
1,Cc1cccnc1[C@@H]1CCC[C@H](c2cn3c(N4CCN(C)CC4)cccc3n2)N1 [Compound I-187],4.72
